The values that follow come from ChEMBL document CHEMBL1147185, “Comparative rates of sialylation by recombinant trans-sialidase and inhibitor properties of synthetic oligosaccharides from Trypanosoma cruzi mucins-containing galactofuranose and galactopyranose” (Bioorg Med Chem, 2007).

The nature of the assay: Inhibition of Trypanosoma cruzi trans-sialidase after 15 mins.
As usually defined, the IC50 is the concentration at which inhibition is half-maximal. `O=C(COCc1ccccc1)N[C@H]1[C@H](OCc2ccccc2)O[C@@H](CO[C@@H]2O[C@H](CO)[C@H](O)[C@H](O[C@H]3O[C@@H](CO)[C@@H](O)[C@@H](O)[C@@H]3O)[C@H]2O[C@@H]2O[C@H](CO)[C@H](O)[C@H](O)[C@H]2O)[C@H](O[C@@H]2O[C@@H]([C@H](O)CO)[C@H](O)[C@H]2O)[C@H]1O` came in with an IC50 of 700 µM. Next, `O=C(COCc1ccccc1)N[C@H]1[C@H](OCc2ccccc2)O[C@@H](CO[C@H]2O[C@@H](CO)[C@@H](O)[C@@H](O[C@H]3O[C@@H](CO)[C@@H](O)[C@H](O)[C@@H]3O)[C@@H]2O)[C@H](O[C@@H]2O[C@@H]([C@H](O)CO)[C@H](O)[C@H]2O)[C@H]1O`: 1140 µM; `O=C(CO)N[C@H]1[C@H](OCc2ccccc2)O[C@@H](CO[C@@H]2O[C@H](CO)[C@H](O)[C@H](O[C@H]3O[C@@H](CO)[C@@H](O)[C@@H](O)[C@@H]3O)[C@H]2O[C@@H]2O[C@H](CO)[C@H](O)[C@H](O)[C@H]2O)[C@H](O[C@@H]2O[C@@H]([C@H](O)CO)[C@H](O)[C@H]2O)[C@H]1O`: 610 µM; `CC(=O)N[C@H]1[C@@H](OCc2ccccc2)O[C@H](CO[C@@H]2O[C@H](CO)[C@H](O)[C@H](O)[C@H]2O)[C@@H](O[C@H]2O[C@H]([C@@H](O)CO)[C@@H](O)[C@@H]2O)[C@@H]1O`: 1330 µM.

Compound `O=C(COCc1ccccc1)N[C@H]1[C@@H](OCc2ccccc2)O[C@H](CO)[C@@H](O[C@@H]2O[C@@H]([C@H](O)CO)[C@H](O)[C@H]2O[C@@H]2O[C@H](CO)[C@H](O)[C@H](O)[C@H]2O)[C@@H]1O` registered a concentration for half-maximal inhibition (IC50) of 850 µM. In the case of `O=C(CO)N[C@H]1[C@@H](OCc2ccccc2)O[C@H](CO)[C@@H](O[C@@H]2O[C@@H]([C@H](O)CO)[C@H](O)[C@H]2O[C@@H]2O[C@H](CO)[C@H](O)[C@H](O)[C@H]2O)[C@@H]1O`, the concentration for half-maximal inhibition (IC50) came to 1670 µM.

Compound `O=C(COCc1ccccc1)N[C@H]1[C@@H](OCc2ccccc2)O[C@H](CO[C@@H]2O[C@H](CO)[C@H](O)[C@H](O)[C@H]2O)[C@@H](O)[C@@H]1O` returned a 50% inhibitory concentration (IC50) of 1110 µM. Take `O=C(COCc1ccccc1)N[C@H]1[C@@H](OCc2ccccc2)O[C@H](CO[C@@H]2O[C@H](CO)[C@H](O)[C@H](O)[C@H]2O)[C@@H](O[C@H]2O[C@H]([C@@H](O)CO)[C@@H](O)[C@@H]2O)[C@@H]1O`: the concentration for half-maximal inhibition (IC50) is 860 µM. Take `CC(=O)N[C@H]1[C@@H](OCc2ccccc2)O[C@H](CO)[C@@H](O[C@@H]2O[C@@H]([C@H](O)CO)[C@H](O)[C@H]2O[C@@H]2O[C@H](CO)[C@H](O)[C@H](O)[C@H]2O)[C@@H]1O`: the IC50 amounted to 4430 µM. With `OC[C@@H]1O[C@H](O[C@@H]2[C@H](O)[C@H](CO)O[C@H](OCc3ccccc3)[C@H]2O[C@@H]2O[C@H](CO)[C@H](O)[C@H](O)[C@H]2O)[C@@H](O)[C@H](O)[C@@H]1O`, the IC50 worked out at 1130 µM.

Regarding `CC(=O)N[C@H]1[C@H](OCc2ccccc2)O[C@@H](CO[C@@H]2O[C@H](CO)[C@H](O)[C@H](O[C@H]3O[C@@H](CO)[C@@H](O)[C@@H](O)[C@@H]3O)[C@H]2O[C@@H]2O[C@H](CO)[C@H](O)[C@H](O)[C@H]2O)[C@H](O[C@@H]2O[C@@H]([C@H](O)CO)[C@H](O)[C@H]2O)[C@H]1O`, the midpoint of inhibition, the IC50, lay at 850 µM. `O=C(CO)N[C@H]1[C@@H](OCc2ccccc2)O[C@H](CO[C@@H]2O[C@H](CO)[C@H](O)[C@H](O)[C@H]2O)[C@@H](O)[C@@H]1O` had an IC50 of 980 µM. Next, `O=C(CO)N[C@H]1[C@@H](OCc2ccccc2)O[C@H](CO[C@@H]2O[C@H](CO)[C@H](O)[C@H](O)[C@H]2O)[C@@H](O[C@H]2O[C@H]([C@@H](O)CO)[C@@H](O)[C@@H]2O)[C@@H]1O`: 940 µM. As to `O=C(CO)N[C@H]1[C@H](OCc2ccccc2)O[C@@H](CO[C@H]2O[C@@H](CO)[C@@H](O)[C@@H](O[C@H]3O[C@@H](CO)[C@@H](O)[C@H](O)[C@@H]3O)[C@@H]2O)[C@H](O[C@@H]2O[C@@H]([C@H](O)CO)[C@H](O)[C@H]2O)[C@H]1O`, the midpoint of inhibition, the IC50, lay at 1260 µM. As for `CC(=O)N[C@H]1[C@H](OCc2ccccc2)O[C@@H](CO[C@H]2O[C@@H](CO)[C@@H](O)[C@@H](O[C@H]3O[C@@H](CO)[C@@H](O)[C@H](O)[C@@H]3O)[C@@H]2O)[C@H](O[C@@H]2O[C@@H]([C@H](O)CO)[C@H](O)[C@H]2O)[C@H]1O`, half-maximal inhibition (IC50) required 760 µM. For `CC(=O)N[C@H]1[C@@H](OCc2ccccc2)O[C@H](CO[C@@H]2O[C@H](CO)[C@H](O)[C@H](O)[C@H]2O)[C@@H](O)[C@@H]1O`, half-maximal inhibition (IC50) was put at 2220 µM.
